Assay results from patent US7135279B2 (priority 1992, dated 2006).

Legend:
[1] = control of morning sickness during pregnancy; cited from earlier work
[2] = system: D-[Aba^67.95 (CO-S)^51–52]2 HIV-1 PR; experiment: Fluorogenic assay of inhibitors against the D-ligation analog; type: biochemical; details: corresponding chiral substrate, 5×1C50 concentration of inhibitor
Description: (§1) The D- and L-enzymes were separately assayed by the fluorogenic assay method using the corresponding chiral substrate, in the presence of 5×1C50 concentration of inhibitor. The fluorogenic assays were performed with 15 ul aliquots (corresponding to […] protein) of each enzyme enantiomer in 100 millimolar MES buffer pH 6.5 added to a solution of […] D- or L-fluorogenic substrate in the MES buffer. The substrate sequence was 2-aminobenzoyl-Thr-Ile-Nle-Phe(p-NO2)-Gln-Arg amide (SEQ ID NO 2): it was synthesized with either D- or L-amino acid derivatives to provide the appropriate enantiomeric forms. The inhibitor Evans Blue is a non-peptide, achiral mixed competitive-uncompetitive inhibitor of the HIV-1 PR enzyme.

[3] = target: T1, L-[Aba^67.95 (CO-S)^51–52]2 HIV-1 PR (Human immunodeficiency virus type 1 group M subtype B, UniProt P03369, C557A/C585A); experiment: Fluorogenic assay of inhibitors against the L-ligation analog; type: biochemical; details: corresponding chiral substrate, 5×1C50 concentration of inhibitor
T1 construct: to form the ligated 99-residue D- and L-[(NHCH2COSCH2 CO)^51-52]; HIV-1 PR products; made in house; host or cells: total chemical synthesis: solid-phase segments 1-51 and 53-99 joined by chemical ligation
Description: as §1

| Molecule | sedative effect [1] | inhibition of D-[Aba^67.95 (CO-S)^51–52]2 HIV-1 PR [2] | inhibition of L-[Aba^67.95 (CO-S)^51–52]2 HIV-1 PR [3] |
| --- | --- | --- | --- |
| O=C1CC[C@@H](N2C(=O)c3ccccc3C2=O)C(=O)N1 (single isomer, unassigned) [D-enantiomer of thalidomide] | safe and effective sedative | – | – |
| Ac-Thr-Ile-Nle-psi[CH2NH]-Nle-Gln-Arg.amide [D-MVT101] | – | inhibits | no effect |
| Ac-Thr-Ile-Nle-psi[CH2NH]-Nle-Gln-Arg.amide [L-MVT101] | – | no effect | inhibits |
